Results reported in PubChem BioAssay AID1918930 (Molecular Pharmacology Branch, DTP, NCI, 2023).
Several values for one entry are separate records, joined by “and”; a condition that tells them apart may be missing. Identical values can stand only once.

Tested on: 233499-124-R-J3-PDC complex spheroid viability, % test/control
Assay: Anticancer human tumor 233499-124-R-J3-PDC patient-derived colon adenocarcinoma cell line growth inhibition
Conditions: for viability, T/C: stronger effect = lower value
Procedure, shortened: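 Drug combinations with the LSD1 inhibitor iadademstat tested on tumor cells co-cultured as spheroids with endothelial cells and mesenchymal stem cells. Concentrations descended in half-log increments from clinical Cmax or 10 microM.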

[1] = curve of first compound, second compound 0.1 µM
[2] = curve of first compound, second compound 0.316 µM
[3] = curve of first compound, second compound 1 µM
[4] = curve of first compound, second compound 3.16 µM
[5] = curve of first compound, second compound 10 µM
[6] = second compound 0.1 µM, first compound 0.0316 µM
[7] = second compound 0.1 µM, first compound 0.1 µM
[8] = second compound 0.1 µM, first compound 0.316 µM
[9] = second compound 0.1 µM, first compound 1 µM
[10] = second compound 0.1 µM, first compound 3.16 µM
[11] = second compound 0.1 µM, first compound 10 µM
[12] = second compound 0.316 µM, first compound 0.0316 µM
[13] = second compound 0.316 µM, first compound 0.1 µM
[14] = second compound 0.316 µM, first compound 0.316 µM
[15] = second compound 0.316 µM, first compound 1 µM
[16] = second compound 0.316 µM, first compound 3.16 µM
[17] = second compound 0.316 µM, first compound 10 µM
[18] = second compound 1 µM, first compound 0.0316 µM
[19] = second compound 1 µM, first compound 0.1 µM
[20] = second compound 1 µM, first compound 0.316 µM
[21] = second compound 1 µM, first compound 1 µM
[22] = second compound 1 µM, first compound 3.16 µM
[23] = second compound 1 µM, first compound 10 µM
[24] = second compound 3.16 µM, first compound 0.0316 µM
[25] = second compound 3.16 µM, first compound 0.1 µM
[26] = second compound 3.16 µM, first compound 0.316 µM
[27] = second compound 3.16 µM, first compound 1 µM
[28] = second compound 3.16 µM, first compound 3.16 µM
[29] = second compound 3.16 µM, first compound 10 µM
[30] = second compound 10 µM, first compound 0.0316 µM
[31] = second compound 10 µM, first compound 0.1 µM
[32] = second compound 10 µM, first compound 0.316 µM
[33] = second compound 10 µM, first compound 1 µM
[34] = second compound 10 µM, first compound 3.16 µM
[35] = second compound 10 µM, first compound 10 µM
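Further: spheroids exposed to agents for one week before readout.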

Question: Which results are given for `O=C(c1cc(Cc2n[nH]c(=O)c3ccccc23)ccc1F)N1CCN(C(=O)C2CC2)CC1` + NC1CC1c1ccc(-c2cccc(O)c2)cc1?
Answer: IC50 [1]: > 10 µM; IC50 [2]: > 10 µM; IC50 [3]: > 10 µM; IC50 [4]: > 10 µM; IC50 [5]: > 10 µM; viability, T/C [6]: 96.9%; viability, T/C [7]: 92.2%; viability, T/C [8]: 98.5%; viability, T/C [9]: 97.8%; viability, T/C [10]: 100%; viability, T/C [11]: 73.2%; viability, T/C [12]: 94.2%; viability, T/C [13]: 106%; viability, T/C [14]: 106%; viability, T/C [15]: 87.2%; viability, T/C [16]: 91.1%; viability, T/C [17]: 79.3%; viability, T/C [18]: 78.3%; viability, T/C [19]: 91.6%; viability, T/C [20]: 91.6%; viability, T/C [21]: 79%; viability, T/C [22]: 73.4%; viability, T/C [23]: 68.5%; viability, T/C [24]: 87.6%; viability, T/C [25]: 83.4%; viability, T/C [26]: 71.6%; viability, T/C [27]: 84.6%; viability, T/C [28]: 66.5%; viability, T/C [29]: 63%; viability, T/C [30]: 77.6%; viability, T/C [31]: 75.1%; viability, T/C [32]: 71.9%; viability, T/C [33]: 68%; viability, T/C [34]: 58.6%; viability, T/C [35]: 62.7%

Question: For `CC1COCCN1c1cc(C2(S(C)(=N)=O)CC2)nc(-c2ccnc3[nH]ccc23)n1` (centres undefined) + NC1CC1c1ccc(-c2cccc(O)c2)cc1, which IC50 [1] is on record?
Answer: > 10 µM

Question: What about the IC50 [2] of the same molecule?
Answer: > 10 µM

Question: What about the IC50 [3] of the same molecule?
Answer: > 10 µM

Question: And the IC50 [4]?
Answer: 4.43 µM

Question: And the IC50 [5]?
Answer: 3.1 µM

Question: What about the viability, T/C [6] of the same molecule?
Answer: 110%

Question: What about the viability, T/C [7] of the same molecule?
Answer: 98.1%

Question: What about the viability, T/C [8] of the same molecule?
Answer: 109%

Question: What about the viability, T/C [9] of the same molecule?
Answer: 95.5%

Question: What about the viability, T/C [10] of the same molecule?
Answer: 57%

Question: And the viability, T/C [11]?
Answer: 65.6%

Question: And the viability, T/C [12]?
Answer: 105%

Question: And the viability, T/C [13]?
Answer: 114%

Question: What about the viability, T/C [14] of the same molecule?
Answer: 101%

Question: And the viability, T/C [15]?
Answer: 87.6%

Question: And the viability, T/C [16]?
Answer: 60.5%

Question: What about the viability, T/C [17] of the same molecule?
Answer: 69.3%

Question: What about the viability, T/C [18] of the same molecule?
Answer: 95.6%

Question: And the viability, T/C [19]?
Answer: 92.5%

Question: What about the viability, T/C [20] of the same molecule?
Answer: 93.9%

Question: And the viability, T/C [21]?
Answer: 87.8%

Question: And the viability, T/C [22]?
Answer: 59.7%

Question: What about the viability, T/C [23] of the same molecule?
Answer: 52.7%

Question: And the viability, T/C [24]?
Answer: 108%

Question: And the viability, T/C [25]?
Answer: 96.3%

Question: And the viability, T/C [26]?
Answer: 90.3%

Question: What about the viability, T/C [27] of the same molecule?
Answer: 70.1%

Question: What about the viability, T/C [28] of the same molecule?
Answer: 48.6%

Question: And the viability, T/C [29]?
Answer: 47.1%

Question: And the viability, T/C [30]?
Answer: 92.2%

Question: And the viability, T/C [31]?
Answer: 77.5%

Question: And the viability, T/C [32]?
Answer: 80.6%

Question: And the viability, T/C [33]?
Answer: 78.2%

Question: And the viability, T/C [34]?
Answer: 45.3%

Question: And the viability, T/C [35]?
Answer: 53.8%

Question: What does the source list for `O=C(C=Cn1cnc(-c2cc(C(F)(F)F)cc(C(F)(F)F)c2)n1)NNc1cnccn1`?
Answer: viability, T/C (compound 0.00316 µM): 102% and 76.2%; viability, T/C (compound 0.01 µM): 106% and 79.7%; viability, T/C (compound 0.0316 µM): 98.9% and 61.4%; viability, T/C (compound 0.1 µM): 54.3% and 71.6%; viability, T/C (compound 0.316 µM): 46.3% and 88.5%; viability, T/C (compound 1 µM): 11.6% and 62%; IC50 (curve of compound): 0.192 µM and > 1 µM

Question: Which results are given for `CC1COCCN1c1cc(-c2ccnn2C)c2ccnc(-c3ccn[nH]3)c2n1` (centres undefined)?
Answer: viability, T/C (compound 0.00316 µM): 91.4% and 59.2%; viability, T/C (compound 0.01 µM): 93.3% and 48.8%; viability, T/C (compound 0.0316 µM): 61.6% and 40.6%; viability, T/C (compound 0.1 µM): 34.6% and 38.1%; viability, T/C (compound 0.316 µM): 16.5% and 47.6%; viability, T/C (compound 1 µM): 31.2% and 97.3%

Question: With `NC1CCC(NC2CC2c2ccccc2)CC1` (centres undefined) as the molecule, how does the IC50 (compound alone, run of 01/24/2022) read?
Answer: > 10 µM
